Data reported in the NIST ThermoML archive (doi:10.1016/j.fluid.2006.01.030).
± gives the expanded uncertainty stated by the source.

Assay: xn = mol fraction of the nth substance listed
Settings: Liquid

CCCCCCC [heptane] + CCO
viscosity [mPa·s]
Settings | x2 = 0 | x2 = 0.125 | x2 = 0.25 | x2 = 0.375 | x2 = 0.5 | x2 = 0.625 | x2 = 0.75 | x2 = 0.875
313.15 K, 100000 kPa, Falling or rolling sphere viscometry | – | – | – | – | 0.906 ± 0.039 | 0.984 ± 0.042 | 1.088 ± 0.047 | 1.217 ± 0.053
333.15 K, 100 kPa, Capillary tube (Ostwald / Ubbelohde) method | 0.276 ± 0.006 | 0.274 ± 0.006 | 0.282 ± 0.006 | 0.299 ± 0.006 | 0.325 ± 0.007 | 0.361 ± 0.008 | 0.409 ± 0.009 | 0.484 ± 0.01
333.15 K, 20000 kPa, Falling or rolling sphere viscometry | 0.336 ± 0.014 | 0.332 ± 0.014 | 0.344 ± 0.014 | 0.364 ± 0.015 | 0.393 ± 0.017 | 0.435 ± 0.019 | 0.489 ± 0.021 | 0.565 ± 0.025
333.15 K, 40000 kPa, Falling or rolling sphere viscometry | 0.402 ± 0.017 | 0.4 ± 0.017 | 0.414 ± 0.017 | 0.436 ± 0.018 | 0.469 ± 0.02 | 0.515 ± 0.022 | 0.571 ± 0.025 | 0.651 ± 0.028
333.15 K, 60000 kPa, Falling or rolling sphere viscometry | 0.472 ± 0.02 | 0.471 ± 0.02 | 0.486 ± 0.02 | 0.511 ± 0.022 | 0.546 ± 0.023 | 0.595 ± 0.025 | 0.653 ± 0.028 | 0.734 ± 0.032
333.15 K, 80000 kPa, Falling or rolling sphere viscometry | 0.546 ± 0.023 | 0.544 ± 0.023 | 0.56 ± 0.024 | 0.589 ± 0.025 | 0.623 ± 0.026 | 0.677 ± 0.029 | 0.735 ± 0.032 | 0.816 ± 0.035
333.15 K, 100000 kPa, Falling or rolling sphere viscometry | 0.623 ± 0.026 | 0.621 ± 0.026 | 0.636 ± 0.027 | 0.67 ± 0.028 | 0.703 ± 0.03 | 0.761 ± 0.032 | 0.818 ± 0.035 | 0.898 ± 0.039
353.15 K, 100 kPa, Capillary tube (Ostwald / Ubbelohde) method | 0.232 ± 0.005 | – | – | – | – | – | – | –
353.15 K, 20000 kPa, Falling or rolling sphere viscometry | 0.289 ± 0.012 | 0.282 ± 0.012 | 0.286 ± 0.012 | 0.298 ± 0.013 | 0.316 ± 0.013 | 0.341 ± 0.015 | 0.374 ± 0.016 | 0.423 ± 0.018
353.15 K, 40000 kPa, Falling or rolling sphere viscometry | 0.346 ± 0.014 | 0.337 ± 0.014 | 0.343 ± 0.014 | 0.357 ± 0.015 | 0.376 ± 0.016 | 0.403 ± 0.017 | 0.437 ± 0.019 | 0.49 ± 0.021
353.15 K, 60000 kPa, Falling or rolling sphere viscometry | 0.401 ± 0.017 | 0.394 ± 0.016 | 0.401 ± 0.017 | 0.412 ± 0.017 | 0.434 ± 0.018 | 0.464 ± 0.02 | 0.501 ± 0.022 | 0.556 ± 0.024
353.15 K, 80000 kPa, Falling or rolling sphere viscometry | 0.458 ± 0.019 | 0.45 ± 0.019 | 0.458 ± 0.019 | 0.475 ± 0.02 | 0.499 ± 0.021 | 0.53 ± 0.023 | 0.565 ± 0.024 | 0.622 ± 0.027
353.15 K, 100000 kPa, Falling or rolling sphere viscometry | 0.521 ± 0.022 | 0.513 ± 0.022 | 0.522 ± 0.022 | 0.539 ± 0.023 | 0.565 ± 0.024 | 0.599 ± 0.026 | 0.631 ± 0.027 | 0.69 ± 0.03
